Assay results reported in publication PMC10870435, “A novel complement C3 inhibitor CP40-KK protects against experimental pulmonary arterial hypertension via an inflammasome NLRP3 associated pathway” (Journal of Translational Medicine, 2024).
Bridge positions count the residues as written; N and C are the ends. Square brackets hold non-standard residues; d marks the D form. Peptide text beside a SMILES is read from it. Trp(1-Me) = Cn1cc(C[C@H](N)C(=O)O)c2ccccc21; NMeI = CC[C@H](C)[C@H](NC)C(=O)O; Sar = CNCC(=O)O

Tests used:
[1] = test system: rat complement C3 function; experiment: CH50 test ex vivo, plasma of PAH experiment groups; assay type: in vivo; settings: 2 mg/kg s.c. day 15 to day 28
Experimental: In the current study, two animal experiments were conducted successively. 30 rats were randomly divided into two groups (control group and MCT group, n = 15 per group) in the first experiment. MCT group rats received a single intraperitoneally injection of MCT (40 mg/kg) on day 1 to induce PAH while control group rats received an equivoluminal saline injection intraperitoneally. For the second animal experiment, the rats were assigned into four groups (control group, MCT group, CP40-KK group, and MCT + CP40-KK group, n = 15 per group). […]
The total functional complement was determined with a CH50 assay based on the modified method of Mayer. […] The OD values of supernatant liquid in the ten tubes were measured at 541 nm and compared with that of the 50% haemolytic standard tube to get the most similar value. The total haemolytic complement (CH50) = dilution ratio / the quantity of plasma needed to induce 50% lysis of sheep erythrocytes.
Plasma samples for biological assays from rats were centrifuged and stored at -80°C until used, and the total functional complement was determined with a CH50 assay based on the modified method of Mayer. This assay involves determining the quantity of plasma needed to induce 50% lysis of sheep erythrocytes sensitized with antibody anti-sheep erythrocytes. […]

NLRP3 inflammasome = experiment: Lung homogenate western blot of NF-κB p65 / NLRP3 inflammasome pathway in PAH rats; assay type: in vivo, rat; settings: lung homogenates, MCT + CP40-KK vs MCT, n = 6 per group
Experimental: In the current study, two animal experiments were conducted successively. 30 rats were randomly divided into two groups (control group and MCT group, n = 15 per group) in the first experiment. MCT group rats received a single intraperitoneally injection of MCT (40 mg/kg) on day 1 to induce PAH while control group rats received an equivoluminal saline injection intraperitoneally. For the second animal experiment, the rats were assigned into four groups (control group, MCT group, CP40-KK group, and MCT + CP40-KK group, n = 15 per group). The control group was given the same volume of saline subcutaneously while the CP40-KK group rats only received CP40-KK (2 mg/kg) by subcutaneous injection from day 15 to day 28 continuously. The rats in the MCT group and MCT + CP40-KK group were received a single intraperitoneally injection of MCT (40 mg/kg) on day 1 and subcutaneously injected with either an equal volume of saline or CP40-KK (2 mg/kg) at day 15 to day 28 continuously. The dose selection of MCT and CP40-KK in our study was established based on previous studies.
Proteins were collected from the fresh frozen-rat lung tissues using RIPA lysis buffer. Protein concentration was quantified using a BCA reagent. Equal amounts of protein were electrophoretically separated on 10% SDS polyacrylamide gel, transferred to PVDF membranes, and probed with desired primary antibodies overnight at 4 °C. Membranes were then washed with TBST and incubated with anti-mouse IgG (1:5000) or anti-rabbit IgG (1:5000) horseradish peroxidase conjugated antibodies as indicated. […] To compare and quantify levels of proteins, the density of each band was measured using Image J software. Equal loading for total cell or tissue lysates was determined by β-Actin western blot.
Proteins were collected from the fresh frozen-rat lung tissues using RIPA lysis buffer. Protein concentration was quantified using a BCA reagent. […] To compare and quantify levels of proteins, the density of each band was measured using Image J software. Equal loading for total cell or tissue lysates was determined by β-Actin western blot^3,4.

[2] = Plasma lipids and lung oxidative stress markers in PAH rats; assay type: in vivo, rat
Experimental: Blood samples were obtained from rats, and plasma lipid levels were measured with a total cholesterol assay kit and triglyceride assay kit (Nanjing Jiancheng Bioengineering Institute, Nanjing City, China). 2.5μL plasma or 2.5μL calibrator was added into 250μL working solution, and then incubated at 37 ℃ for 10 minutes. OD values were measured at 500nm using a microplate reader (Bio-tek, Vermont, USA).
Figure S2. The effect of CP40-KK on oxidative stress in the lungs of the PAH rats. Representative Western blots (A) and quantification (B) of the NOX1, Gp91phox, NOX4 and SOD2 in lung homogenates of rat (B; n=6 per group).

[3] = cited from earlier work
Source text: The selective C3 inhibitor CP40 has been found therapeutically effective in various diseases, but has yet not been tested in the PAH model. In the current study, we applied the newly identified CP40 analog, CP40-KK, with two more lysine attached to the C terminus, in the MCT-induced PAH rat model.

C3b = settings: cited from earlier work
complement C3 = settings: cited from earlier work

- effect on oxidative stress (NOX1, Gp91phox, NOX4, SOD2) ([2]; lung homogenates, western blot, Figure S2, n=6 per group): no effect
- effect on lipid metabolism (triglyceride, cholesterol) ([2]; rat plasma, PAH model groups, Figure S1): no effect
SMILES: CC[C@H](C)[C@H](NC(=O)[C@H](N)Cc1ccc(O)cc1)C(=O)N[C@H]1CSSC[C@@H](C(=O)N(C)[C@H](C(=O)N[C@@H](CCCCN)C(=O)N[C@@H](CCCCN)C(N)=O)[C@@H](C)CC)NC(=O)[C@H](CCCNC(=N)N)NC(=O)[C@H](Cc2c[nH]cn2)NC(=O)CN(C)C(=O)[C@H](Cc2c[nH]c3ccccc23)NC(=O)[C@H](CC(=O)O)NC(=O)[C@H](CCC(N)=O)NC(=O)[C@H](Cc2cn(C)c3ccccc23)NC(=O)[C@H](C(C)C)NC1=O [CP40-KK] (H-[dY]ICV[Trp(1-Me)]QDW[Sar]HRC[NMeI]KK-NH2; disulfide 3-12 (inferred))
- CH50 value ex vivo, MCT + CP40-KK vs MCT group [1]: could reverse it
- NF-κB subunit p65 phosphorylation (NLRP3 inflammasome): significantly block
- NLRP3 inflammasome activation (NLRP3 inflammasome): significantly block
- production of proinflammatory cytokines IL-1β and IL-18 (NLRP3 inflammasome): reduced
- improvement in solubility in comparison with parental peptide CP40 ([3]; at physiological pH): > 200 fold
- apparent clearance compared to CP40 (decreased) ([3]; non-human primates): ~2.6 fold
- maximum concentration compared to CP40 (higher) ([3]; non-human primates): twofold
- terminal half-life compared to CP40 (higher) ([3]; non-human primates): fivefold
- binding affinity for C3b relative to CP40 (C3b): increase the binding affinity for C3b
- inhibitory potency relative to CP40 (complement C3): retaining its inhibitory potency
